# Source: US20250213512A1, “TRANSDERMAL ANALGESIC FORMULATION” (MEAT & LIVESTOCK AUSTRALIA LTD, priority 2017, published 2025)
# Values joined by “and” are separate entries in the source; they are usually repeats but may differ in a detail not shown here. Equal values may be shown once.
# How the values were obtained:
# [1] = Screening of NSAID and vehicle combinations: penetration through cattle skin in vitro (Table 13)
# Description: Hair was removed using an electric clipper and the subcutaneous fat and musculature carefully trimmed away before the skin was cut into circular sections (approximately 2 cm diameter) using a metal wad punch, and placed in airtight ziplock bags, stored at −20° C. within 5 hr of slaughter.
# The skin samples were defrosted immediately prior to use and mounted on Franz diffusion cells. […] A glass cover slip was applied to each donor chamber to prevent evaporation of the donor solution. Samples (200 μL) were collected at regular intervals from the receptor chambers via the sampling port and immediately replenished with equal volumes of fresh receptor solution. At the completion of each study, the diffusions cells were dismantled and the skin discs were rinsed and stored.
# [2] = Solubility / precipitation of NSAIDs in the vehicles tested; settings: vehicles screened
# [3] = 10% Flunixin, vehicle KET65 (Cromollient-SCE-LQ-(MH), 100% Di-PPG2-Myreth-10-Adipate), sample time 6 hrs
# [4] = 10% Flunixin, vehicle KET93: Isopronanol 50% IPN, 1-Ethyl-2-Pryrrolidone 45% EP, Menthol 50 ng/mL, Buffer/EVAP None, sample time 0.5 hrs
# [5] = 10% Flunixin, vehicle KET93: Isopronanol 50% IPN, 1-Ethyl-2-Pryrrolidone 45% EP, Menthol 50 ng/mL, Buffer/EVAP None, sample time 2 hrs
# [6] = 10% Flunixin, vehicle KET93: Isopronanol 50% IPN, 1-Ethyl-2-Pryrrolidone 45% EP, Menthol 50 ng/mL, Buffer/EVAP None, sample time 4 hrs
# [7] = 10% Flunixin, vehicle KET93: Isopronanol 50% IPN, 1-Ethyl-2-Pryrrolidone 45% EP, Menthol 50 ng/mL, Buffer/EVAP None, sample time 6 hrs
# [8] = 10% Flunixin, vehicle KET95: Isopronanol 50% IPN, 1-Ethyl-2-Pryrrolidone 45% EP, Menthol 50 ng/mL, Buffer/EVAP None, sample time 0.2 hrs
# [9] = 10% Flunixin, vehicle KET95: Isopronanol 50% IPN, 1-Ethyl-2-Pryrrolidone 45% EP, Menthol 50 ng/mL, Buffer/EVAP None, sample time 0.5 hrs
# [10] = 10% Flunixin, vehicle KET95: Isopronanol 50% IPN, 1-Ethyl-2-Pryrrolidone 45% EP, Menthol 50 ng/mL, Buffer/EVAP None, sample time 2 hrs
# [11] = 10% Flunixin, vehicle KET95: Isopronanol 50% IPN, 1-Ethyl-2-Pryrrolidone 45% EP, Menthol 50 ng/mL, Buffer/EVAP None, sample time 4 hrs
# [12] = 10% Flunixin, vehicle KET96: Isopronanol 50% IPN, Propylene glycol 45% PPG, Eucalyptus oil […] 1,8-cineole, Buffer/EVAP None, sample time not printed (sample KET1430, replicate 1)
# [13] = Flunixin 10% in vehicle KET46: Ethanol 70% EthOH, Propylene glycol 30% PPG, terpene None, 0.1M citrate, sample time 6 hrs
# [14] = Flunixin 10% in vehicle KET46: Ethanol 70% EthOH, Propylene glycol 30% PPG, terpene None, 0.1M citrate, sample time 8 hrs
compound,measurement,setting,value
"Cc1c(Nc2ncccc2C(=O)O)cccc1C(F)(F)F [flunixin, flunixin meglumine]",Concentration,"[1]; 10% Flunixin, vehicle KET65 (Cromollient-SCE-LQ-(MH), 100% Di-PPG2-Myreth-10-Adipate), sample time 0.5 hrs",0 µg/mL
same,Concentration,"[1]; 10% Flunixin, vehicle KET65 (Cromollient-SCE-LQ-(MH), 100% Di-PPG2-Myreth-10-Adipate), sample time 2 hrs",0 µg/mL
same,analysis conc,"[1]; 10% Flunixin, vehicle KET65 (Cromollient-SCE-LQ-(MH), 100% Di-PPG2-Myreth-10-Adipate), sample time 4 hrs",0.006 and 0.005
same,Concentration,[1]; [3],0.018 µg/mL and 0.021 µg/mL and 0.015 µg/mL
same,analysis conc,[1]; [3],0.006 and 0.007 and 0.005
same,Concentration,[1]; [4],0.096 µg/mL
same,analysis conc,[1]; [4],0.032
same,Concentration,[1]; [5],0.102 µg/mL
same,analysis conc,[1]; [5],0.034
same,Concentration,[1]; [6],0.543 µg/mL
same,analysis conc,[1]; [6],0.181
same,Concentration,[1]; [7],0.579 µg/mL
same,analysis conc,[1]; [7],0.193
same,Concentration,"[1]; 10% Flunixin, vehicle KET94: Isopronanol 50% IPN, Propylene glycol 45% PPG, Eucalyptus oil […] 1,8-cineole, Buffer/EVAP None, sample time 2 hrs",0.135 µg/mL
same,Concentration,"[1]; 10% Flunixin, vehicle KET94: Isopronanol 50% IPN, Propylene glycol 45% PPG, Eucalyptus oil […] 1,8-cineole, Buffer/EVAP None, sample time 2 hrs, listed as Flunixin",0.123 µg/mL
same,Concentration,[1]; [8],0.114 µg/mL
same,analysis conc,[1]; [8],0.038
same,Concentration,[1]; [9],0.159 µg/mL and 0.237 µg/mL
same,analysis conc,[1]; [9],0.053 and 0.079
same,Concentration,[1]; [10],0.165 µg/mL and 0.246 µg/mL and 0.132 µg/mL
same,analysis conc,[1]; [10],0.055 and 0.082 and 0.044
same,Concentration,[1]; [11],0.186 µg/mL and 0.285 µg/mL and 0.147 µg/mL
same,analysis conc,[1]; [11],0.062 and 0.095 and 0.049
same,Concentration,[1]; [12],0.06 µg/mL
same,analysis conc,[1]; [12],0.02
same,Concentration,"[1]; Flunixin 10% in vehicle KET46: Ethanol 70% EthOH, Propylene glycol 30% PPG, terpene None, 0.1M citrate, sample time 2 hrs",0 µg/mL
same,Concentration,"[1]; Flunixin 10% in vehicle KET46: Ethanol 70% EthOH, Propylene glycol 30% PPG, terpene None, 0.1M citrate, sample time 4 hrs",0 µg/mL
same,Concentration,[1]; [13],0.036 µg/mL
same,analysis conc,[1]; [13],0.012
same,Concentration,[1]; [14],0.036 µg/mL
same,analysis conc,[1]; [14],0.012
same,analysis conc,"[1]; Flunixin 10% in vehicle KET47: Ethanol 70% EthOH, Propylene glycol 30% PPG, Menthol 50 mg/mL, 0.1M citrate, sample time 0.5 hrs",0.009
same,Concentration,"[1]; Flunixin 50%, vehicle KET38: Ethanol 50% EthOH, no co-solvent, Menthol 50 mg/mL, sample time 0.5 hrs, replicates 1-3",0 µg/mL
same,Concentration,"[1]; Flunixin 50%, vehicle KET38: Ethanol 50% EthOH, no co-solvent, Menthol 50 mg/mL, sample time 2 hrs, replicates 1-3",0 µg/mL
same,Concentration,"[1]; Flunixin 50%, vehicle KET38: Ethanol 50% EthOH, no co-solvent, Menthol 50 mg/mL, sample time 4 hrs, replicates 1-3",0 µg/mL
same,Concentration,"[1]; Flunixin 50%, vehicle KET38: Ethanol 50% EthOH, no co-solvent, Menthol 50 mg/mL, sample time 6 hrs, replicates 1-3",0 µg/mL
same,Concentration,"[1]; Flunixin 50%, vehicle KET38: Ethanol 50% EthOH, no co-solvent, Menthol 50 mg/mL, sample time 8 hrs, replicates 1-3",0 µg/mL
same,solubility in vehicles,[2],most soluble in the majority of vehicles examined
